Data: PMC9851200, “Multiparameter phenotypic screening for endogenous TFEB and TFE3 translocation identifies novel chemical series modulating lysosome function” (Autophagy, 2022)

How the values were obtained:
[1] = molecular target: kinases (KINOMEscan panel) (Homo sapiens, UniProt P51812); type: binding
[2] = molecular target: kinases (KINOMEscan panel) (Homo sapiens, UniProt Q15208); type: binding
[3] = molecular target: kinases (KINOMEscan panel) (Homo sapiens, UniProt P28482); type: binding
[4] = molecular target: kinases (KINOMEscan panel) (Homo sapiens, UniProt P31152); type: binding
[5] = molecular target: kinases (KINOMEscan panel) (Homo sapiens, UniProt Q14289); type: binding
[6] = molecular target: kinases (KINOMEscan panel) (Homo sapiens, UniProt Q13163); type: binding
[7] = molecular target: kinases (KINOMEscan panel) (Homo sapiens, UniProt Q16620); type: binding
[8] = molecular target: kinases (KINOMEscan panel) (Homo sapiens, UniProt O75676); type: binding; details: NEW KINOMEscan
[9] = molecular target: kinases (KINOMEscan panel) (Homo sapiens, UniProt Q05397); type: binding
[10] = molecular target: kinases (KINOMEscan panel) (Homo sapiens, UniProt Q15831); type: binding
[11] = molecular target: kinases (KINOMEscan panel) (Homo sapiens, UniProt Q9H093); type: binding
[12] = molecular target: kinases (KINOMEscan panel) (Homo sapiens, UniProt Q32MK0); type: binding
[13] = molecular target: kinases (KINOMEscan panel) (Homo sapiens, UniProt O14733); type: binding
[14] = molecular target: kinases (KINOMEscan panel) (Homo sapiens, UniProt Q6P2M8); type: binding
[15] = molecular target: kinases (KINOMEscan panel) (Homo sapiens, UniProt Q9Y6E0); type: binding
[16] = molecular target: kinases (KINOMEscan panel) (Homo sapiens, UniProt O94768); type: binding
[17] = molecular target: kinases (KINOMEscan panel) (Homo sapiens, UniProt P42679); type: binding
[18] = molecular target: kinases (KINOMEscan panel) (Homo sapiens, UniProt Q13882); type: binding
[19] = molecular target: kinases (KINOMEscan panel) (Homo sapiens, UniProt O00506); type: binding
[20] = molecular target: kinases (KINOMEscan panel) (Homo sapiens, UniProt Q8TD08); type: binding
[21] = molecular target: kinases (KINOMEscan panel) (Homo sapiens, UniProt Q13043); type: binding
[22] = molecular target: kinases (KINOMEscan panel) (Homo sapiens, UniProt P35968); type: binding
[23] = molecular target: kinases (KINOMEscan panel) (Homo sapiens, UniProt P23443); type: binding
[24] = molecular target: kinases (KINOMEscan panel) (Homo sapiens, UniProt Q9UK32); type: binding
[25] = molecular target: kinases (KINOMEscan panel) (Homo sapiens, UniProt O43283); type: binding
[26] = molecular target: kinases (KINOMEscan panel) (Homo sapiens, UniProt P27361); type: binding
[27] = molecular target: kinases (KINOMEscan panel) (Homo sapiens, UniProt O60285); type: binding
[28] = molecular target: kinases (KINOMEscan panel) (Homo sapiens, UniProt Q8WU08); type: binding
[29] = molecular target: kinases (KINOMEscan panel) (Homo sapiens, UniProt Q92918); type: binding
[30] = molecular target: kinases (KINOMEscan panel) (Homo sapiens, UniProt P04629); type: binding
[31] = molecular target: kinases (KINOMEscan panel) (Homo sapiens, UniProt Q16288); type: binding
[32] = molecular target: kinases (KINOMEscan panel) (Homo sapiens, UniProt P07947); type: binding
[33] = molecular target: kinases (KINOMEscan panel) (Homo sapiens, UniProt Q16659); type: binding
[34] = molecular target: kinases (KINOMEscan panel) (Homo sapiens, UniProt Q02750); type: binding
[35] = molecular target: kinases (KINOMEscan panel) (Homo sapiens, UniProt Q13188); type: binding
[36] = molecular target: kinases (KINOMEscan panel) (Homo sapiens, UniProt Q9NY57); type: binding
[37] = molecular target: kinases (KINOMEscan panel) (Homo sapiens, UniProt Q15349); type: binding
SRPK1, SRPK2 = assay: KiNativ in-cell kinase binding, SRPK1, SRPK2; details: 2 µM
From the text: As KINOMEscan is an in vitro assay, and as different cell types have variable kinase expression profiles we sought to determine the kinase binding profile in our SH-SY5Y TFEB-relocalization cell model. […] Bound kinases were pulled down and analyzed by mass spectrometry to determine the in situ kinase binding profile for each compound.

Chain of kinases (KINOMEscan panel) (Homo sapiens, UniProt P51812) (P51812 whole entry): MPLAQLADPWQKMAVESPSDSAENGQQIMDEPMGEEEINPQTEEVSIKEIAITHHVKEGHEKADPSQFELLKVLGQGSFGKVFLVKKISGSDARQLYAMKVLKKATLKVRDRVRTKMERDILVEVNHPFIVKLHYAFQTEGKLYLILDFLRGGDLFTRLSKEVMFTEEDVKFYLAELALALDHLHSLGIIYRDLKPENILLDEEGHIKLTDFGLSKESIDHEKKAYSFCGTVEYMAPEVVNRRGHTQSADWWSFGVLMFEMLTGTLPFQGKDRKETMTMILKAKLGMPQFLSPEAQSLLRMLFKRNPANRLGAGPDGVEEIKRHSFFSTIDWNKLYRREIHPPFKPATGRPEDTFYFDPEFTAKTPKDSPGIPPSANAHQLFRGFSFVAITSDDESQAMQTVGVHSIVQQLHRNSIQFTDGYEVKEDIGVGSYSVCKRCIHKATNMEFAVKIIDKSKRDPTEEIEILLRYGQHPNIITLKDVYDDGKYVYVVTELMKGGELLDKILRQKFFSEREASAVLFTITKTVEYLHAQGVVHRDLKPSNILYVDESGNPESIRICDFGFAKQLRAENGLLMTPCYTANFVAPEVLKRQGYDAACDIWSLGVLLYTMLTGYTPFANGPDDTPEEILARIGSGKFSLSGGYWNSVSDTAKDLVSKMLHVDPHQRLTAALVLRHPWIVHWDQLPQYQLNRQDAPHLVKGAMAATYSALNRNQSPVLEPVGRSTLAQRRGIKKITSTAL
Chain of kinases (KINOMEscan panel) (Homo sapiens, UniProt Q15349) (Q15349 whole entry): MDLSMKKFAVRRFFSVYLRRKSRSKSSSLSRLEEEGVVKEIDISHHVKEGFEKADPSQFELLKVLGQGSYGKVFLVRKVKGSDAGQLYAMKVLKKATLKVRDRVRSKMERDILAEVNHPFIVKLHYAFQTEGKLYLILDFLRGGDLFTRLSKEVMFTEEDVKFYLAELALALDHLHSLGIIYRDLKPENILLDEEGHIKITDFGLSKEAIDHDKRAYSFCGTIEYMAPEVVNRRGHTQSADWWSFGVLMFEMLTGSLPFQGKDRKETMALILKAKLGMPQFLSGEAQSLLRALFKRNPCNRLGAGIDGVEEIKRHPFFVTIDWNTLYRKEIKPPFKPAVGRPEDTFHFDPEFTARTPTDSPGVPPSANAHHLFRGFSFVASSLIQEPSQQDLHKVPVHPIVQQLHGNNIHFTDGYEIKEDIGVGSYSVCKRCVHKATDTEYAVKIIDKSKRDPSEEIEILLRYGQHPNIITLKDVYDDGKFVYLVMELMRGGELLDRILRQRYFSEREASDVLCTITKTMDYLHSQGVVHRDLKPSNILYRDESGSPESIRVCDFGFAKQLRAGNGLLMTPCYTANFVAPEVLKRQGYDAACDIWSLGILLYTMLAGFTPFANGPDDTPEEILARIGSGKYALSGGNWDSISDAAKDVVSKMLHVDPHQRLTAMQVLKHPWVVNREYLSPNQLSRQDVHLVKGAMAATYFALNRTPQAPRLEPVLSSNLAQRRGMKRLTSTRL
Chain of kinases (KINOMEscan panel) (Homo sapiens, UniProt Q9UK32) (Q9UK32 whole entry): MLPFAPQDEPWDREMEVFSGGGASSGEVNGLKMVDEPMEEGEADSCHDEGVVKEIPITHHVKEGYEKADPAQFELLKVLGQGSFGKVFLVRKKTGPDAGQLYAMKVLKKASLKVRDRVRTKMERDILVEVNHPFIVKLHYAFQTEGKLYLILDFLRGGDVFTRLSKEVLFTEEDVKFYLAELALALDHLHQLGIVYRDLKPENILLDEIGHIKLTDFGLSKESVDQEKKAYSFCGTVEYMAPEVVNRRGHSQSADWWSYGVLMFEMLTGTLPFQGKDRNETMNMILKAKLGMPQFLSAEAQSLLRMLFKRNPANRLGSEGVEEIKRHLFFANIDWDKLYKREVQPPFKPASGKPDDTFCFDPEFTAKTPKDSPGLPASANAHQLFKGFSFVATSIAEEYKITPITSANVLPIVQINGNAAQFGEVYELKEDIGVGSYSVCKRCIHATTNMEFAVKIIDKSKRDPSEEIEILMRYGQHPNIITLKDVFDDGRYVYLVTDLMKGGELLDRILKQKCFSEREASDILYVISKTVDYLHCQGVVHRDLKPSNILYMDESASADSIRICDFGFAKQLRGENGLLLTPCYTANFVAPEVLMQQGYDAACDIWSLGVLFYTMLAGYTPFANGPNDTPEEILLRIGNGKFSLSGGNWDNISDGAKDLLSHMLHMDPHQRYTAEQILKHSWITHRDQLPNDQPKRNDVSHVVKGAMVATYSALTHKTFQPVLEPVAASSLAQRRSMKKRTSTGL
Chain of kinases (KINOMEscan panel) (Homo sapiens, UniProt O75676) (O75676 whole entry): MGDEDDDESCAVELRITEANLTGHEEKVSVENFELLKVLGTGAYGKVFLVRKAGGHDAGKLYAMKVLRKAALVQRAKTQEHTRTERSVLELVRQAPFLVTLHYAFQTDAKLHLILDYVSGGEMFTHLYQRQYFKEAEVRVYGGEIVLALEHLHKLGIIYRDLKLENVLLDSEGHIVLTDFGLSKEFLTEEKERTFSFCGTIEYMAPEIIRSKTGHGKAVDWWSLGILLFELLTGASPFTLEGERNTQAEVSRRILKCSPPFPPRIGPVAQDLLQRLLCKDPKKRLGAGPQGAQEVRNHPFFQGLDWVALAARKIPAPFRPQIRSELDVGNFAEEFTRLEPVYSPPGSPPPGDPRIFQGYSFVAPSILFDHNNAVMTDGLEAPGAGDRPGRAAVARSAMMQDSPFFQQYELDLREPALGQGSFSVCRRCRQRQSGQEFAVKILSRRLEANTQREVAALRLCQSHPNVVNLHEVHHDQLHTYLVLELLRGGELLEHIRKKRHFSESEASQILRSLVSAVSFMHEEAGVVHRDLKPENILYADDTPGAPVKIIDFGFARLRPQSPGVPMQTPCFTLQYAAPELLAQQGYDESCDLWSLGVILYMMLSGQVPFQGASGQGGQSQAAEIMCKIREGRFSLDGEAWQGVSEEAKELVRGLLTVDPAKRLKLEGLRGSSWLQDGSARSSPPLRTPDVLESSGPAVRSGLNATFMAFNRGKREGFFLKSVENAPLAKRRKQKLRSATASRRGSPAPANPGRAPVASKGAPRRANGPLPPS
Chain of kinases (KINOMEscan panel) (Homo sapiens, UniProt Q05397) (Q05397 whole entry): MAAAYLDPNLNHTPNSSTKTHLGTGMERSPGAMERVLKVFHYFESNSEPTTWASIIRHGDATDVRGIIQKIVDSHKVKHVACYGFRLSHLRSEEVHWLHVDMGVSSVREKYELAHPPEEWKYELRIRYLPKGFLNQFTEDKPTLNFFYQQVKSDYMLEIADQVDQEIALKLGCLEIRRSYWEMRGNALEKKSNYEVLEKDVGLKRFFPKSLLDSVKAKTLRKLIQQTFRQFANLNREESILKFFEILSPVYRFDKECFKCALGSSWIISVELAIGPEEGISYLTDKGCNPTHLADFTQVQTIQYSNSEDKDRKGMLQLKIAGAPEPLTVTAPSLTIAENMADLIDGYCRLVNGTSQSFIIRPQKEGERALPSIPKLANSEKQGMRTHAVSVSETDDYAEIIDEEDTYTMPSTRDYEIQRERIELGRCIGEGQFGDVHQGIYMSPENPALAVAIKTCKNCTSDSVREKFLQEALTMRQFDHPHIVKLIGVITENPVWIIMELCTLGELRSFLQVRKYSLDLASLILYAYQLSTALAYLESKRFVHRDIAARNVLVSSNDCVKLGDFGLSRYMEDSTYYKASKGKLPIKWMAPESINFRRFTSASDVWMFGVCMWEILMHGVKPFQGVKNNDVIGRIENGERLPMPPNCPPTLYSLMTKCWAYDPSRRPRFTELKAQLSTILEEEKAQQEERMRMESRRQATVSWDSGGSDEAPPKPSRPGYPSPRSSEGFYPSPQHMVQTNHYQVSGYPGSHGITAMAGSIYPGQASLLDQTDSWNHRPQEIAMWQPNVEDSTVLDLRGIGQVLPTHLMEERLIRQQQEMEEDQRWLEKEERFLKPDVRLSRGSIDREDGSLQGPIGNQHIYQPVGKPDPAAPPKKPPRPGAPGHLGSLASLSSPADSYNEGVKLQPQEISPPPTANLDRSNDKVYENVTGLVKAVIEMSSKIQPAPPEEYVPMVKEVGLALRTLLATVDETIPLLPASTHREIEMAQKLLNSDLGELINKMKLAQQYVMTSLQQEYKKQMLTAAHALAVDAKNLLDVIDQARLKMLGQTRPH
Chain of kinases (KINOMEscan panel) (Homo sapiens, UniProt Q6P2M8) (Q6P2M8 whole entry): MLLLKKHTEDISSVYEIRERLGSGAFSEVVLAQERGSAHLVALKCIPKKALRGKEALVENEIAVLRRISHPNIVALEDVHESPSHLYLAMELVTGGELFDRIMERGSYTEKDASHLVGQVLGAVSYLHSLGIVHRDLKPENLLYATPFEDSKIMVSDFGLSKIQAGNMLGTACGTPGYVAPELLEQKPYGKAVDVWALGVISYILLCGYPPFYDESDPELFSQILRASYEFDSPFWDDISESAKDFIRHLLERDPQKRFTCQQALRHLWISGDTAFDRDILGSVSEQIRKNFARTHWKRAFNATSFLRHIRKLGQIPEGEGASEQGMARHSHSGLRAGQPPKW
Chain of kinases (KINOMEscan panel) (Homo sapiens, UniProt O00506) (O00506 whole entry): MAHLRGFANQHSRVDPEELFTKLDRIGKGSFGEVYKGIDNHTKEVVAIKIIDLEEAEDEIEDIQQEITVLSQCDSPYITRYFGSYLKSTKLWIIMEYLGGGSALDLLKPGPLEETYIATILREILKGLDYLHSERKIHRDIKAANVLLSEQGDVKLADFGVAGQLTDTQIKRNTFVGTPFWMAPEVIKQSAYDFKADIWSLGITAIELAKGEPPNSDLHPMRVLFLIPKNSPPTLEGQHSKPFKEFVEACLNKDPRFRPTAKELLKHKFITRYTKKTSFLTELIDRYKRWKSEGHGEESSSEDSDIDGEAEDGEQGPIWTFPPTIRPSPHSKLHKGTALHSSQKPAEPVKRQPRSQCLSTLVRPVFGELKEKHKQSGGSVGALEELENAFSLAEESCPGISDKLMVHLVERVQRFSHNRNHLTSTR

Question: `Cc1cccc(-c2nc(N(C)c3ccc4ncsc4c3)c3ccccc3n2)n1` [NK-161] was tested. Which “KINOMEscan RPS6KA3/RSK2(Kin.Dom.1-N-terminal)” value [1] did it give?
Answer: 5

Question: And the “KINOMEscan RPS6KA3/RSK2(Kin.Dom.2-C-terminal)” value [1]?
Answer: 27

Question: And the “KINOMEscan NDR1/STK38” value [2]?
Answer: 42

Question: And the “KINOMEscan MAPK1/ERK2” value [3]?
Answer: 6

Question: And the “KINOMEscan MAPK4/ERK4” value [4]?
Answer: 6

Question: And the “KINOMEscan PTK2B/PYK2” value [5]?
Answer: 9

Question: And the “KINOMEscan MAP2K5/MEK5” value [6]?
Answer: 0

Question: What about the “KINOMEscan NTRK2/TRKB” value [7] of the same compound?
Answer: 45

Question: And the “KINOMEscan RPS6KA4(Kin.Dom.1-N-terminal)” value ([8]; RPS6KA4(Kin.Dom.1-N-terminal))?
Answer: 0

Question: What about the “KINOMEscan RPS6KA4(Kin.Dom.2-C-terminal)” value ([8]; RPS6KA4(Kin.Dom.2-C-terminal)) of the same compound?
Answer: 0

Question: And the “KINOMEscan PTK2/FAK” value [9]?
Answer: 0

Question: And the “KINOMEscan STK11/LKB1” value [10]?
Answer: 0

Question: And the “KINOMEscan NUAK2/SNARK” value [11]?
Answer: 15

Question: What about the “KINOMEscan MYLK/MLCK” value [12] of the same compound?
Answer: 8

Question: And the “KINOMEscan MAP2K7/MKK7” value [13]?
Answer: 0

Question: And the “KINOMEscan PNCK/CAMK1B” value [14]?
Answer: 0

Question: What about the “KINOMEscan STK24/MST3” value [15] of the same compound?
Answer: 0

Question: And the “KINOMEscan STK17B/DRAK2” value [16]?
Answer: 4

Question: What about the “KINOMEscan MATK/CTK” value [17] of the same compound?
Answer: 8

Question: What about the “KINOMEscan PTK6/BRK” value [18] of the same compound?
Answer: 0

Question: What about the “KINOMEscan STK25/YSK1” value [19] of the same compound?
Answer: 2

Question: What about the “KINOMEscan MAPK15/ERK8” value [20] of the same compound?
Answer: 0

Question: What about the “KINOMEscan STK4/MST1” value [21] of the same compound?
Answer: 17

Question: And the “KINOMEscan KDR/VEGFR2” value [22]?
Answer: 4

Question: And the “KINOMEscan RPS6KB1/S6K1” value [23]?
Answer: 0

Question: And the “KINOMEscan RPS6KA6/RSK4(Kin.Dom.1-N-terminal)” value [24]?
Answer: 8

Question: And the “KINOMEscan RPS6KA6/RSK4(Kin.Dom.2-C-terminal)” value [24]?
Answer: 4

Question: And the “KINOMEscan MAP3K13/LZK” value [25]?
Answer: 22

Question: What about the “KINOMEscan MAPK3/ERK1” value [26] of the same compound?
Answer: 14

Question: What about the “KINOMEscan NUAK1/ARK5” value [27] of the same compound?
Answer: 0

Question: And the “KINOMEscan STK32A/YANK1” value [28]?
Answer: 0

Question: And the “KINOMEscan MAP4K1/HPK1” value [29]?
Answer: 0

Question: And the “KINOMEscan NTRK1/TRKA” value [30]?
Answer: 22

Question: What about the “KINOMEscan NTRK3/TRKC” value [31] of the same compound?
Answer: 29

Question: What about the “KINOMEscan YES1/YES” value [32] of the same compound?
Answer: 0

Question: What about the “KINOMEscan MAPK6/ERK3” value [33] of the same compound?
Answer: 14

Question: What about the “KINOMEscan MAP2K1/MEK1” value [34] of the same compound?
Answer: 32

Question: And the “KINOMEscan STK3/MST2” value [35]?
Answer: 0

Question: What about the “KINOMEscan STK32B/YANK2” value [36] of the same compound?
Answer: 17

Question: What about the “KINOMEscan RPS6KA2/RSK3(Kin.Dom.1-N-terminal)” value [37] of the same compound?
Answer: 0

Question: And the “KINOMEscan RPS6KA2/RSK3(Kin.Dom.2-C-terminal)” value [37]?
Answer: 16

Question: `Cc1cccc(-c2nc(Nc3ccc4ncsc4c3)c3ccccc3n2)n1` [NK140] was tested. Which “KiNativ in-cell binding, % Inhibition, SRPK1, SRPK2” value (SRPK1, SRPK2) did it give?
Answer: 80.8%
